Earlier results in patent US20190274986A1, “STERILE INJECTABLE COMPOSITION COMPRISING MELPHALAN” (CADILA HEALTHCARE LIMITED, priority 2018, published 2019).
Like-named read-outs stand apart in the source and are kept apart here.

Columns and labels:
[1] = not given; remark: listed apart in the source

Row | Compound | Solubility (in 1 N HCl) | Solubility (in methanol) | Solubility (in water) | Dose with evidence of renal cellular toxicity ([1]; animal studies, repeated administration over 1-6 months) [mg/kg/day] | Renal function on repeated administration ([1]; animal studies, repeated administration, even at much higher doses) | Renal effect in single-dose studies ([1]; animal trials, single-dose up to 2000 mg/kg i.v.)
1 | Cl.N[C@@H](Cc1ccc(N(CCCl)CCCl)cc1)C(=O)O [Melphalan, 4-[bis(2-chloroethyl)amino]-L-phenylalanine hydrochloride] | freely soluble | freely soluble | practically insoluble | – | – | –
2 | sulfobutylether beta-cyclodextrin | – | – | – | ≥ 160 | renal function was not impaired | renal tolerance
